# EP1043336A2, “Stereospecific antibodies for imidazolinone herbicides” (The Regents of the University of California, priority 1999, dated 2000)
# Columns and labels:
# MAb 3A2 = assay: Indirect competition EIA, cross-reactivity with common agrochemicals (wells coated with hapten 17-OA); format: binding, mouse; details: for inhibition: 5-10 ppm
# Method: EIAs were done essentially as described by Karu et al (1994). For indirect EIAs, hapten-protein conjugates were adsorbed to wells of Immulon 2™ 96-well plates (Dynatech) in 0.1 mL of coating buffer (0.015 M Na2CO3 ― 0.035 M NaHCO3 ―0.003 M NaN3, pH 9.6). PBS-Tween containing 0.05% gelatin, 0.45 micron-filtered, was used as the diluent for antibodies and antibody-analyte mixtures, and as a blocking solution to prevent adventitious binding. The detecting antibody for the indirect EIAs was alkaline phosphatase conjugated goat anti-mouse IgG and IgM The substrate solution for color development was p-nitrophenyl phosphate 1 mg/mL, in 10% (w/v) diethanolamine-HCl, pH 9.8 ― 0.5 mM MgCl2 ― 3 mM NaN3. • 1. Indirect competition EIA. Indirect competition EIA (immobilized hapten conjugate) was used to evaluate the responses of mice, screen the MAbs, and quantify imidazolinone analytes. Optimal amounts of imidazolinone-BSA or -OVA conjugate for plate coating and dilutions for the hybridoma culture supernate or antiserum were determined by checkerboard assay. To perform the assay, wells were coated overnight at 4°C with a limiting amount of conjugate in 0.1 mL of coating buffer. Imidazolinone standards (0.5 to 5000 ppb) or unknowns were mixed with a limiting amount of antiserum or hybridoma culture fluid in the diluent and incubated overnight at 4°C in tightly sealed polypropylene tubes. The coated wells were washed and blocked with 0.2 mL of 0.05% gelatin in PBS-Tween for 30 minutes at room temperature. After another wash, aliquots (0.1 mL) of the antibody-analyte mixture were added to wells, and the remainder of the assay was performed as previously described (Karu et al., 1994). • 2. Direct competition EIA. Direct EIAs were performed by capturing the MAb on microwells and allowing the analyte to compete with a HRP-conjugated hapten for binding. Bound HRP-conjugate was then detected with a commercial HRP substrate. The sensitivity of this assay was enhanced by use of a commercial enzymatic signal amplification kit (GIBCO-BRL). Wells were coated with 200 or 500 ng of affinity-purified goat anti-mouse IgG or anti-mouse IgG Fc in the coating buffer at 4°C overnight. The next day, the wells were washed and blocked with PBS-Tween-gelatin for 30 minutes at room temperature, and then incubated for 1.5 hours at room temperature with hybridoma culture supernate. The plates were washed with PBS-Tween, and 0.1 mL of diluent containing the analyte and a limiting amount of biotinylated imidazolinone was added for 1.5 h at room temperature. The wells were washed three times with PBS-Tween, and Extravidin-alkaline phosphatase conjugate (Sigma) was then added for 30 minutes at room temperature. The plates were washed again with TBS (0.05 M Tris-HCl, pH 7.5,― 0.15 M NaCl) to remove remaining inorganic phosphate, which can inhibit the GIBCO-BRL EIA Amplification system. Substrate solution for the amplification step (0.05 mL) was added for 15 minutes at room temperature, followed by 0.05 mL of the enzymatic amplifying solution and chromogen. Color development at 492 nm was recorded. • 3. EIA Data Analysis. Color development was monitored on a Multiskan EIA reader (Flow Laboratories) interfaced with a Macintosh computer, and the rates of the reaction were calculated by linear regression. Competition EIA dose- response curves were fitted with a 4-parameter logistic equation (Karu et al., 1994). […]
# [1] = tested on: scFv p3A5.1c7 (scFv 3A5, SEQ.ID NO. 3); assay: Relative affinity of MAb and affinity-purified scFv by indirect EIA with equimolar protein; format: binding, mouse; details: indirect EIA on 16-BSA, scFv versus MAb 3A5
# Method: The relative affinities of the MAbs and affinity-purified scFv were determined by indirect EIA using equimolar amounts of protein, essentially as described by Graham, B. M., et al. 1995. Cloning, expression, and characterization of a single-chain antibody fragment to the herbicide paraquat. J. Chem. Tech. Biotechnol. 63: 279-289. The results are illustrated in graphical form in Figures 15A (16-BSA) and 15B (17-OA), with the MAb represented by the solid line and the scFv represented by the broken line in each plot.
# [2] = tested on: panel of monoclonal antibodies (MAbs); assay: Detection of imidazolinones by the panel of MAbs (EIA); format: binding, mouse
# Method: EIAs were done essentially as described by Karu et al (1994). For indirect EIAs, hapten-protein conjugates were adsorbed to wells of Immulon 2™ 96-well plates (Dynatech) in 0.1 mL of coating buffer (0.015 M Na2CO3 ― 0.035 M NaHCO3 ―0.003 M NaN3, pH 9.6). PBS-Tween containing 0.05% gelatin, 0.45 micron-filtered, was used as the diluent for antibodies and antibody-analyte mixtures, and as a blocking solution to prevent adventitious binding. The detecting antibody for the indirect EIAs was alkaline phosphatase conjugated goat anti-mouse IgG and IgM The substrate solution for color development was p-nitrophenyl phosphate 1 mg/mL, in 10% (w/v) diethanolamine-HCl, pH 9.8 ― 0.5 mM MgCl2 ― 3 mM NaN3. • 1. Indirect competition EIA. Indirect competition EIA (immobilized hapten conjugate) was used to evaluate the responses of mice, screen the MAbs, and quantify imidazolinone analytes. Optimal amounts of imidazolinone-BSA or -OVA conjugate for plate coating and dilutions for the hybridoma culture supernate or antiserum were determined by checkerboard assay. To perform the assay, wells were coated overnight at 4°C with a limiting amount of conjugate in 0.1 mL of coating buffer. Imidazolinone standards (0.5 to 5000 ppb) or unknowns were mixed with a limiting amount of antiserum or hybridoma culture fluid in the diluent and incubated overnight at 4°C in tightly sealed polypropylene tubes. The coated wells were washed and blocked with 0.2 mL of 0.05% gelatin in PBS-Tween for 30 minutes at room temperature. After another wash, aliquots (0.1 mL) of the antibody-analyte mixture were added to wells, and the remainder of the assay was performed as previously described (Karu et al., 1994). • 2. Direct competition EIA. Direct EIAs were performed by capturing the MAb on microwells and allowing the analyte to compete with a HRP-conjugated hapten for binding. Bound HRP-conjugate was then detected with a commercial HRP substrate. The sensitivity of this assay was enhanced by use of a commercial enzymatic signal amplification kit (GIBCO-BRL). Wells were coated with 200 or 500 ng of affinity-purified goat anti-mouse IgG or anti-mouse IgG Fc in the coating buffer at 4°C overnight. The next day, the wells were washed and blocked with PBS-Tween-gelatin for 30 minutes at room temperature, and then incubated for 1.5 hours at room temperature with hybridoma culture supernate. The plates were washed with PBS-Tween, and 0.1 mL of diluent containing the analyte and a limiting amount of biotinylated imidazolinone was added for 1.5 h at room temperature. The wells were washed three times with PBS-Tween, and Extravidin-alkaline phosphatase conjugate (Sigma) was then added for 30 minutes at room temperature. The plates were washed again with TBS (0.05 M Tris-HCl, pH 7.5,― 0.15 M NaCl) to remove remaining inorganic phosphate, which can inhibit the GIBCO-BRL EIA Amplification system. Substrate solution for the amplification step (0.05 mL) was added for 15 minutes at room temperature, followed by 0.05 mL of the enzymatic amplifying solution and chromogen. Color development at 492 nm was recorded. • 3. EIA Data Analysis. Color development was monitored on a Multiskan EIA reader (Flow Laboratories) interfaced with a Macintosh computer, and the rates of the reaction were calculated by linear regression. Competition EIA dose- response curves were fitted with a 4-parameter logistic equation (Karu et al., 1994).
# [3] = tested on: AHAS isozymes, designated I and II; details: isozymes from Black Mexican Sweet corn; cited from earlier work
# [4] = tested on: scFv p3A5.1c7 (scFv 3A5, SEQ.ID NO. 3); assay: Indirect competition EIA with scFv (16-BSA coating), compared with MAb 3A5.1; format: binding, mouse; details: scFv on 16-BSA versus MAb 3A5.1
molecule,measurement,setting,value
"CCCN(CCC)C(=O)SCC [EPTC, S-ethyl dipropylthiocarbamate]",cross-reactivity,MAb 3A2; up to 10 ppm,No cross-reactivity
"CCc1cccc(CC)c1N(COC)C(=O)CCl [alachlor, 2-chloro-2'-6'-diethyl-N-(methoxymethyl)-acetanilide]",cross-reactivity,MAb 3A2; up to 10 ppm,No cross-reactivity
"CCNc1nc(Cl)nc(NC(C)C)n1 [atrazine, Atrazine]",cross-reactivity,MAb 3A2; up to 10 ppm,No cross-reactivity
"CCOC(=O)c1ccccc1S(=O)(=O)NC(=O)Nc1nc(Cl)cc(OC)n1 [chlorimuron ethyl, ethyl 2-[[[[(4-chloro-6-methoxypyrimidin 2-yl)amino]carbonyl]amino]sulfonyl]benzoate]",inhibition,MAb 3A2,10-15%
same,cross-reactivity,MAb 3A2; up to 5 ppm,did not cross-react
"COc1nc(C)nc(NC(=O)NS(=O)(=O)c2ccccc2Cl)n1 [chlorsulfuron, 2-chloro-N[(4-methoxy-6-methyl-1,3,5 triazin-2-yl)aminocarbonyl]benzenesulfonamide]",inhibition,MAb 3A2,10-15%
same,cross-reactivity,MAb 3A2; up to 5 ppm,did not cross-react
"CC(C)N.O=C(O)CNCP(=O)(O)O [glyphosate, N-(phosphono-methyl) glycine isopropylamine salt]",cross-reactivity,MAb 3A2; up to 10 ppm,No cross-reactivity
"CC(C)C1(C)N=C(c2ncc(C=CC(=O)O)cc2C(=O)O)NC1=O (stereo not shown) [hapten 16, imazapyr-5-propenoic acid]",affinity of the scFv relative to that of the MAb (fold poorer),[1],"about 1,000 fold"
"Cc1cnc(C2=NC(C)(C(C)C)C(=O)N2)c(C(=O)O)c1 (stereo not shown) [imazapic, 5-methyl-2-(4-isopropyl-4-methyl-5-oxo-2-imidazolin-2-yl) nicotinic acid]",detection range,[2],3 to 30 ng/mL
"CC(C)C1(C)N=C(c2ncccc2C(=O)O)NC1=O (stereo not shown) [imazapyr, 2-(4-isopropyl-4-methyl-5-oxo-2-imidazolin-2-yl) nicotinic acid]",detection range,[2],300-500 ppb
same,sensitivity of AHAS II vs AHAS I to inhibition,[3],significantly more sensitive
"CC(C)C1(C)N=C(c2nc3ccccc3cc2C(=O)O)NC1=O (stereo not shown) [imazaquin, 2-(4-isopropyl-4-methyl-5-oxo-2-imidazolin-2-yl)-3-quinoline carboxylic acid]",I50 with scFv relative to I50 with the MAb (higher = less sensitive),[4],about two-fold
same,detection range,[2],3 to 30 ng/mL
"CCc1cccc(C)c1N(C(=O)CCl)C(C)COC (stereo not shown) [metolachlor, 2-chloro-N-(2-ethyl-6-methylphenyl)-N-(2-methoxy-1-methylethyl) acetamide]",cross-reactivity,MAb 3A2; up to 10 ppm,No cross-reactivity
"CCSC(=O)N1CCCCCC1 [molinate, S-ethyl-hexahydro-1-H-azepine-1-carbothioate]",cross-reactivity,MAb 3A2; up to 10 ppm,No cross-reactivity
"CCOc1cc(Oc2ccc(C(F)(F)F)cc2Cl)ccc1[N+](=O)[O-] [oxyfluorfen, 2-chloro-1-(3-ethoxy-4-nitrophenoxy)-4-(trifluoromethyl) benzene]",cross-reactivity,MAb 3A2; up to 10 ppm,No cross-reactivity
"C[n+]1ccc(-c2cc[n+](C)cc2)cc1.[Cl-].[Cl-] [paraquat, 1,1'-dimethyl-4,4'-bipyridinium dichloride]",cross-reactivity,MAb 3A2; up to 10 ppm,No cross-reactivity
"CCC(CC)Nc1c([N+](=O)[O-])cc(C)c(C)c1[N+](=O)[O-] [pendimethalin, N-(1-ethylpropyl)-3,4-dimethyl-2,6-dinitrobenzenamine]",cross-reactivity,MAb 3A2; up to 10 ppm,No cross-reactivity
"COC(=O)Nc1cccc(OC(=O)Nc2cccc(C)c2)c1 [phenmedipham, 3-methoxycarbonylaminophenyl-N(3'-methylphenyl)carbamate]",cross-reactivity,MAb 3A2; up to 10 ppm,No cross-reactivity
CCC/C(=N\OCC)C1=C(O)CC(CC(C)SCC)CC1=O (stereo not shown) [sethoxydim],cross-reactivity,MAb 3A2; up to 10 ppm,No cross-reactivity
a mixture of methyl 6-(4-isopropyl-4-methyl-5-oxo-2-imidazolin-2-yl) m-toluate and methyl 2-(4-isopropyl-4-methyl-5-oxo-2-imidazolin-2-yl) p-toluate [imazamethabenz-methyl],detection range,[2],300-500 ppb
